How the values were obtained:
Type in all cases: functional
OVCAR-3 = assay: Growth inhibition of human OVCAR-3 cells after 48 hrs by SRB protein assay; details: OVCAR-3, 48 h
OVCAR-5 = assay: Growth inhibition of human OVCAR5 cells after 48 hrs by SRB protein assay; details: OVCAR-5, 48 h
OVCAR-8 = assay: Growth inhibition of human OVCAR8 cells after 48 hrs by SRB protein assay; details: OVCAR-8, 48 h
SK-OV-3 = assay: Growth inhibition of human SK-OV-3 cells after 48 hrs by SRB protein assay; details: SK-OV-3, 48 h
ACHN = assay: Growth inhibition of human ACHN cells after 48 hrs by SRB protein assay
CAKI-1 = assay: Growth inhibition of human CAKI1 cells after 48 hrs by SRB protein assay; details: CAKI-1, 48 h
CCRF-CEM = assay: Growth inhibition of human CCRF-CEM cells after 48 hrs by SRB protein assay
BT-549 = assay: Growth inhibition of human BT549 cells after 48 hrs by SRB protein assay; details: BT-549, 48 h
Hs-578T = assay: Growth inhibition of human HS578T cells after 48 hrs by SRB protein assay
RPMI-8226 = assay: Growth inhibition of human RPMI8226 cells after 48 hrs by SRB protein assay; details: RPMI-8226, 48 h
NCI-H460 [1] = assay: Anticancer activity against human NCI-H460 cells assessed as growth of cells at 100 uM relative to untreated cells
SF-268 = assay: Anticancer activity against human SF268 cells assessed as growth of cells at 100 uM relative to untreated cells
MCF7 [2] = assay: Anticancer activity against human MCF7 cells assessed as growth of cells at 100 uM relative to untreated cells
K562 = assay: Growth inhibition of human K562 cells after 48 hrs by SRB protein assay; details: K562, 48 h
MOLT-4 = assay: Growth inhibition of human MOLT4 cells after 48 hrs by SRB protein assay; details: MOLT-4, 48 h
EKVX = assay: Growth inhibition of human EKVX cells after 48 hrs by SRB protein assay
HOP-62 = assay: Growth inhibition of human HOP62 cells after 48 hrs by SRB protein assay; details: HOP-62, 48 h
HOP-92 = assay: Growth inhibition of human HOP92 cells after 48 hrs by SRB protein assay; details: HOP-92, 48 h
NCI-H226 = assay: Growth inhibition of human NCI-H226 cells after 48 hrs by SRB protein assay; details: NCI-H226, 48 h
NCI-H322M = assay: Growth inhibition of human NCI-H322M cells after 48 hrs by SRB protein assay
NCI-H460 [3] = assay: Growth inhibition of human NCI-H460 cells after 48 hrs by SRB protein assay; details: NCI-H460, 48 h
NCI-H522 = assay: Growth inhibition of human NCI-H522 cells after 48 hrs by SRB protein assay; details: NCI-H522, 48 h
HCC 2998 = assay: Growth inhibition of human HCC2998 cells after 48 hrs by SRB protein assay; details: HCC 2998, 48 h
HCT-116 = assay: Growth inhibition of human HCT116 cells after 48 hrs by SRB protein assay; details: HCT-116, 48 h
HCT-15 = assay: Growth inhibition of human HCT15 cells after 48 hrs by SRB protein assay; details: HCT-15, 48 h
HT-29 = assay: Growth inhibition of human HT29 cells after 48 hrs by SRB protein assay; details: HT-29, 48 h
U-251 = assay: Growth inhibition of human U251 cells after 48 hrs by SRB protein assay; details: U-251, 48 h
[4] = Growth inhibition of human MALME 3M cells after 48 hrs by SRB protein assay
M14 = assay: Growth inhibition of human M14 cells after 48 hrs by SRB protein assay; details: M14, 48 h
SK-MEL-28 = assay: Growth inhibition of human SK-MEL-28 cells after 48 hrs by SRB protein assay; details: SK-MEL-28, 48 h
SK-MEL-5 = assay: Growth inhibition of human SK-MEL-5 cells after 48 hrs by SRB protein assay; details: SK-MEL-5, 48 h
UACC-257 = assay: Growth inhibition of human UACC257 cells after 48 hrs by SRB protein assay; details: UACC-257, 48 h
UACC-62 = assay: Growth inhibition of human UACC62 cells after 48 hrs by SRB protein assay; details: UACC-62, 48 h
RXF 393 = assay: Growth inhibition of human RXF393 cells after 48 hrs by SRB protein assay; details: RXF 393, 48 h
TK-10 = assay: Growth inhibition of human TK10 cells after 48 hrs by SRB protein assay; details: TK-10, 48 h
UO-31 = assay: Growth inhibition of human UO31 cells after 48 hrs by SRB protein assay; details: UO-31, 48 h
MCF7 [5] = assay: Growth inhibition of human MCF7 cells after 48 hrs by SRB protein assay; details: MCF7, 48 h
MDA-MB-435 = assay: Growth inhibition of human MDA-MB-435 cells after 48 hrs by SRB protein assay; details: MDA-MB-435, 48 h
T47D = assay: Growth inhibition of human T47D cells after 48 hrs by SRB protein assay
[6] = Growth inhibition of human MDA-MB-231/ATCC cells after 48 hrs by SRB protein assay; details: MDA-MB-231, 48 h

O=C(CC1Sc2ncnn2C1=O)Nc1ccc(Cl)cc1 (configuration not stated)
GI50 (OVCAR-3): 21.9 µM | TGI (OVCAR-3; read-out: Log TGI (converted)): 51.3 µM | GI50 (OVCAR-5): 22.4 µM | TGI (OVCAR-5; read-out: Log TGI (converted)): 56.2 µM | GI50 (OVCAR-8): > 100 µM | TGI (OVCAR-8; read-out: Log TGI (converted)): > 100 µM | GI50 (SK-OV-3): > 100 µM | TGI (SK-OV-3; read-out: Log TGI (converted)): > 100 µM | GI50 (ACHN): 17.4 µM | TGI (ACHN; read-out: Log TGI (converted)): 30.9 µM | GI50 (CAKI-1): > 100 µM | TGI (CAKI-1; read-out: Log TGI (converted)): > 100 µM | GI50 (CCRF-CEM): 19.1 µM | TGI (CCRF-CEM; read-out: Log TGI (converted)): 41.7 µM | GI50 (BT-549): 37.2 µM | TGI (BT-549; read-out: Log TGI (converted)): 95.5 µM | GI50 (Hs-578T): > 100 µM | TGI (Hs-578T; read-out: Log TGI (converted)): > 100 µM | GI50 (RPMI-8226): 24 µM | TGI (RPMI-8226; read-out: Log TGI (converted)): 100 µM | Activity (NCI-H460 [1]): 0% | Activity (SF-268): 107% | Activity (MCF7 [2]): 0% | GI50 (K562): 19.1 µM | TGI (K562; read-out: Log TGI (converted)): 43.7 µM | GI50 (MOLT-4): 20 µM | TGI (MOLT-4; read-out: Log TGI (converted)): 47.9 µM | GI50 (EKVX): > 100 µM | TGI (EKVX; read-out: Log TGI (converted)): > 100 µM | GI50 (HOP-62): > 100 µM | TGI (HOP-62; read-out: Log TGI (converted)): > 100 µM | GI50 (HOP-92): 25.1 µM | TGI (HOP-92; read-out: Log TGI (converted)): 64.6 µM | GI50 (NCI-H226): 91.2 µM | TGI (NCI-H226; read-out: Log TGI (converted)): > 100 µM | GI50 (NCI-H322M): > 100 µM | TGI (NCI-H322M; read-out: Log TGI (converted)): > 100 µM | GI50 (NCI-H460 [3]): > 100 µM | TGI (NCI-H460 [3]; read-out: Log TGI (converted)): > 100 µM | GI50 (NCI-H522): 26.9 µM | TGI (NCI-H522; read-out: Log TGI (converted)): 64.6 µM | GI50 (HCC 2998): 38 µM | TGI (HCC 2998; read-out: Log TGI (converted)): > 100 µM | GI50 (HCT-116): 20 µM | TGI (HCT-116; read-out: Log TGI (converted)): 30.9 µM | GI50 (HCT-15): 15.8 µM | TGI (HCT-15; read-out: Log TGI (converted)): 40.7 µM | GI50 (HT-29): 28.8 µM | TGI (HT-29; read-out: Log TGI (converted)): 75.9 µM | GI50 (U-251): 18.2 µM | TGI (U-251; read-out: Log TGI (converted)): 33.9 µM | GI50 [4]: 14.8 µM | TGI ([4]; read-out: Log TGI (converted)): 38.9 µM | GI50 (M14): 35.5 µM | TGI (M14; read-out: Log TGI (converted)): > 100 µM | GI50 (SK-MEL-28): 22.9 µM | TGI (SK-MEL-28; read-out: Log TGI (converted)): 57.5 µM | GI50 (SK-MEL-5): > 100 µM | TGI (SK-MEL-5; read-out: Log TGI (converted)): > 100 µM | GI50 (UACC-257): 40.7 µM | TGI (UACC-257; read-out: Log TGI (converted)): > 100 µM | GI50 (UACC-62): > 100 µM | TGI (UACC-62; read-out: Log TGI (converted)): > 100 µM | GI50 (RXF 393): 25.1 µM | TGI (RXF 393; read-out: Log TGI (converted)): 51.3 µM | GI50 (TK-10): 20.9 µM | TGI (TK-10; read-out: Log TGI (converted)): 39.8 µM | GI50 (UO-31): 22.9 µM | TGI (UO-31; read-out: Log TGI (converted)): 45.7 µM | GI50 (MCF7 [5]): 43.7 µM | TGI (MCF7 [5]; read-out: Log TGI (converted)): > 100 µM | GI50 (MDA-MB-435): 55 µM | TGI (MDA-MB-435; read-out: Log TGI (converted)): > 100 µM | GI50 (T47D): 24 µM | TGI (T47D; read-out: Log TGI (converted)): 61.7 µM | GI50 [6]: 31.6 µM | TGI ([6]; read-out: Log TGI (converted)): 83.2 µM
